Laboratory results from patent publication US20170291890A1 (Epizyme, Inc., priority 2014, published 2017).
Where two headings read alike, the source gives them in different places.

Experiments:
KDM5A = target: T1, KDM5A (Homo sapiens, UniProt P29375); test: KDM5A Assay (SAMDI mass spectrometry demethylase assay); type: biochemical; conditions: C-terminal FLAG-tagged KDM5A 1-1090, read-out: 5A IC50
T1 construct: C-terminal FLAG-tagged KDM5A^1-1090 was purchased from BPS Biosciences; FLAG (C); purchased BPS Biosciences
T1 sequence (P29375 1-1090): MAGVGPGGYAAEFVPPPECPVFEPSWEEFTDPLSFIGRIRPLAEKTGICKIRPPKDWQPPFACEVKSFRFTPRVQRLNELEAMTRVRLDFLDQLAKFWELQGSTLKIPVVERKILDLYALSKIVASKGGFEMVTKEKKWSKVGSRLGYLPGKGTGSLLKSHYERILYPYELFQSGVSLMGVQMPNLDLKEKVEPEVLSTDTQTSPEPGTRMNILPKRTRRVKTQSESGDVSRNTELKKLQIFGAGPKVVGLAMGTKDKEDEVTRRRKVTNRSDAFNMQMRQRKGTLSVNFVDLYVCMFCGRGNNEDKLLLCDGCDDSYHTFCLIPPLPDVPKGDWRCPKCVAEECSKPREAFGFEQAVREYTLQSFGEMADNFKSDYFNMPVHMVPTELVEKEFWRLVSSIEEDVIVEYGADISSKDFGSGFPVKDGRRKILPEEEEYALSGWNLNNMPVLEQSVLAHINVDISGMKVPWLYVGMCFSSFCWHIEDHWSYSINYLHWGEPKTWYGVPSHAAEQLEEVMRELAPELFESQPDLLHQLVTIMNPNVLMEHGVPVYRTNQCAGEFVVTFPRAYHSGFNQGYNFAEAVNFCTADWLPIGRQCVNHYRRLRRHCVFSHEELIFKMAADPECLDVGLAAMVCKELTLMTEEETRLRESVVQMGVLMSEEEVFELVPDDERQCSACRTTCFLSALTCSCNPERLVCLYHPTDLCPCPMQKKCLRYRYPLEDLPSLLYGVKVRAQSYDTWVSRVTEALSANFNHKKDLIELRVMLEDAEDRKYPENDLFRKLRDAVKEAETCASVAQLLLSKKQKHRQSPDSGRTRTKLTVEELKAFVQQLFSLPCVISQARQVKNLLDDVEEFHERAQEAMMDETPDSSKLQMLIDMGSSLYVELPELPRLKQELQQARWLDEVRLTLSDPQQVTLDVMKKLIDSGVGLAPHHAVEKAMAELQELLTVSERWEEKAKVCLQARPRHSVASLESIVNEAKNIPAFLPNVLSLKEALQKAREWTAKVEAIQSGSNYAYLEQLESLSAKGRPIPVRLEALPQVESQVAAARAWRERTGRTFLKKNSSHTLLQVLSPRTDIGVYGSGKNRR
Description: (§1) C-terminal FLAG-tagged KDM5A^1-1090 was purchased from BPS Biosciences. Peptides were synthesized by BioPeptide and all other reagents were purchased from Sigma-Aldrich at the highest level of purity possible. Assays were performed in a 50 μL volume in 384-well V-bottom polypropylene microplates (Greiner) at 25° C. Optimized 1× assay buffer was 50 mM HEPES (pH=8.0), 100 μM sodium ascorbate, 20 mM NaCl, 10 μM ammonium iron sulfate, 1 mM tris(2-carboxyethyl)phosphine (TCEP), 0.002% Tween-20, and 0.005% BSG. For compound screening, 35 μL of KDM5A^1-109° (final concentration, f.c.=20 nM) was added using a Multidrop Combi and preincubated with 1 μL of test compound (f.c.=10 μM) for 30 minutes and subsequently 15 μL of peptide with the following sequence NH2-ART[Kme-3]QTARKSTGGKA[K-Ahx-Biot]-amide (f.c.=250 nM) and 2-oxoglutarate (f.c.=15 μM) was added by Multidrop Combi to begin the reaction. Reactions proceeded for 150 minutes and were stopped by the addition of 5 μL of formic acid (f.c.=0.5%) using a Multidrop Combi and then analyzed by SAMDI Tech Inc.
(§2) SAMDI Tech analyzed all reactions using self-assembled monoloayer desorption/ionization technology as previously described (Gerard-Levin Z A, Scholle M D, Eisenberg A H, et al.: High-throughput screening of small molecule libraries using SAMDI mass spectrometry. ACS Comb Sci 2011; 13:347-350). Briefly, a 2 μL sample of the stopped demethylase reactions were transferred to a SAMDI array coated with 384 biotin-neutravidin spots using a 384-channel pipet station. The SAMDI arrays were incubated for 1 h in a humidified chamber, followed by washing of the surface with deionized ultra-filtered water (DIUF) and drying under nitrogen. A matrix of 30 mg/ml 2′,4′,6′-Trihydroxyacetophenone monohydrate (THAP) in acetone was applied using a TPP Mosquito 1.2 μL tip by dispensing 50 nL on each of the 384 spots on the array. SAMDI-MS was run using acquisition method ReflectorPositiveUTX. The % conversion of substrate to product was calculated using the AUC of the substrate and product peptide peaks.
(§3) An IC50 value was determined by contacting various concentrations of a test compound with one of the KDM4A, KDM4C or KDMSC enzyme constructs and plotting a dose-response curve which associates the amount of inhibition of the enzyme relative to the concentration of the test compound. From the curve, the IC50 value (which represents the concentration of the test compound necessary to inhibit maximal enzymatic activity by 50%) was determined. Additionally, the slope of the linear range of the plotted curve, which indicates the speed with which the curve rises between the minimum and maximum, was calculated.

KDM4C = target: T2, KDM4C (Homo sapiens, UniProt Q9H3R0); test: KDM4C Assay (SAMDI mass spectrometry demethylase assay); type: biochemical; conditions: N-terminal GST-tagged KDM4C 2-372, read-out: 4C IC50
T2 construct: N-terminal GST-tagged KDM4C^2-372 was purchased from BPS Biosciences; GST (N); purchased BPS Biosciences
T2 sequence (Q9H3R0 2-372): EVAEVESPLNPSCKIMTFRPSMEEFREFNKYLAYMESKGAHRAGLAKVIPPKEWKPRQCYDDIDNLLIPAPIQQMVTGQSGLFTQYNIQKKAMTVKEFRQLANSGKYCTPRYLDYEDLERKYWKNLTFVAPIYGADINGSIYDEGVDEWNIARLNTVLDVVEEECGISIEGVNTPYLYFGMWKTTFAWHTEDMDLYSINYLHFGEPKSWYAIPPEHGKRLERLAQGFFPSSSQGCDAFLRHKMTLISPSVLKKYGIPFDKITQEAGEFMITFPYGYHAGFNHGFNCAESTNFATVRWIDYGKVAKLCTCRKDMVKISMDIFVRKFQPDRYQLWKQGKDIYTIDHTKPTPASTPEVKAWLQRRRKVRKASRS
Description: as §1, with “N-terminal GST-tagged KDM4C^2-372” for “C-terminal FLAG-tagged KDM5A^1-1090”, “KDM4C^2-372” for “KDM5A^1-109°”, “f.c.=5” for “f.c.=20”, “NH2-ARTKQTAR(Kme3)STGGKAPRKQLA(K-Ahx-Biotin)-amide (f.c.=500” for “NH2-ART[Kme-3]QTARKSTGGKA[K-Ahx-Biot]-amide (f.c.=250”
as §2, §3

CN(C)CCc1cn(-c2ccccc2)nc1Nc1cnccc1C(=O)O [Compound 144, 3-(4-(2-(dimethylamino)ethyl)-1-phenyl-1H-pyrazol-3-ylamino) isonicotinic acid]
IC50 (KDM5A; class symbols): 1000 to 10000 nM
IC50 (KDM4C; class symbols): 1000 to 10000 nM

Cc1cn(C2CCCNC2)nc1Nc1cnccc1C(=O)O (centres unmarked) [Compound 141, 3-(4-methyl-1-(piperidin-3-yl)-1H-pyrazol-3-ylamino) isonicotinic acid]
IC50 (KDM5A; class symbols): 1 to 100 nM
IC50 (KDM4C; class symbols): 100 to 1000 nM

CCc1c(Nc2cnccc2C(=O)O)cnn1C1CCN(C)CC1 [Compound 123, 3-(5-ethyl-1-(1-methylpiperidin-4-yl)-1H-pyrazol-4-ylamino) isonicotinic acid]
IC50 (KDM5A; class symbols): 1000 to 10000 nM
IC50 (KDM4C; class symbols): 100 to 1000 nM

Cc1cnn(C2CCCN(CCN)C2)c1Nc1cnccc1C(=O)O (centres unmarked) [Compound 140, 3-(1-(1-(2-aminoethyl)piperidin-3-yl)-4-methyl-1H-pyrazol-5-yl-amino)isonicotinic acid]
IC50 (KDM5A; class symbols): 10000 to 100000 nM
IC50 (KDM4C; class symbols): 10000 to 100000 nM

Cc1cn(Cc2ccccc2)nc1Nc1cnccc1C(=O)O [Compound 128, 3-(1-benzyl-4-methyl-1H-pyrazol-3-ylamino)isonicotinic acid]
IC50 (KDM5A; class symbols): 100 to 1000 nM
IC50 (KDM4C; class symbols): 100 to 1000 nM

Cc1nn([C@H]2CCN(C)C2)cc1Nc1cnccc1C(=O)NCCO [Compound 121, (S)—N-(2-hydroxyethyl)-3-((3-methyl-1-(1-methylpyrrolidin-3-yl)-1H-pyrazol-4-yl)amino)isonicotinamide]
IC50 (KDM5A; numeric bound): > 100000 nM
IC50 (KDM4C; numeric bound): > 100000 nM

Cc1nn(C2CCCN(C3CCC3)CC2)cc1Nc1cnccc1C(=O)O (single isomer, unassigned) [Compound 120]
IC50 (KDM5A; class symbols): 100 to 1000 nM
IC50 (KDM4C; class symbols): 100 to 1000 nM

Cc1c(Nc2cnccc2C(=O)O)cnn1C1CCN(c2ccccc2)CC1 [Compound 106, 3-(5-methyl-1-(1-phenylpiperidin-4-yl)-1H-pyrazol-4-ylamino)isonicotinic acid]
IC50 (KDM5A; class symbols): 1000 to 10000 nM
IC50 (KDM4C; class symbols): 1 to 100 nM

Cc1nn(C2CCCN(C3CCC3)CC2)cc1Nc1cnccc1C(=O)O (single isomer, unassigned) [Compound 118]
IC50 (KDM5A; class symbols): 100 to 1000 nM
IC50 (KDM4C; class symbols): 1000 to 10000 nM

Cc1nn(C2CCN(c3ccccc3)CC2)cc1Nc1cnccc1C(=O)O [Compound 105, 3-(3-methyl-1-(1-phenylpiperidin-4-yl)-1H-pyrazol-4-ylamino) isonicotinic acid]
IC50 (KDM5A; class symbols): 1 to 100 nM
IC50 (KDM4C; class symbols): 100 to 1000 nM

O=C(O)c1ccncc1Nc1cnn(C2CCN(Cc3ccccc3)C2)c1-c1ccccc1 (centres unmarked) [Compound 125, 3-(1-(1-benzylpyrrolidin-3-yl)-5-phenyl-1H-pyrazol-4-ylamino) isonicotinic acid]
IC50 (KDM5A; class symbols): 100 to 1000 nM
IC50 (KDM4C; class symbols): 100 to 1000 nM

Cc1nn([C@@H]2CCN(C)C2)cc1Nc1cnccc1C(=O)NCCO [Compound 122, (R)—N-(2-hydroxy-ethyl)-3-((3-methyl-1-(1-methylpyrrolidin-3-yl)-1H-pyrazol-4-yl)amino)isonicotin-amide]
IC50 (KDM5A; class symbols): 10000 to 100000 nM
IC50 (KDM4C; numeric bound): > 100000 nM

CN1CCC(n2cc(-c3ccccc3)c(Nc3cnccc3C(=O)O)n2)CC1 [Compound 130, 3-(1-(1-methylpiperidin-4-yl)-4-phenyl-1H-pyrazol-3-ylamino) isonicotinic acid]
IC50 (KDM5A; class symbols): 1 to 100 nM
IC50 (KDM4C; class symbols): 100 to 1000 nM

CN1CCC(n2ncc(Nc3cnccc3C(=O)O)c2-c2ccccc2)C1 (centres unmarked) [Compound 124]
IC50 (KDM5A; class symbols): 1000 to 10000 nM
IC50 (KDM4C; class symbols): 1000 to 10000 nM

Cc1nn([C@@H]2CNC[C@@H]2C)cc1Nc1cnccc1C(=O)O (single isomer, unassigned) [Compound 109]
IC50 (KDM5A; class symbols): 100 to 1000 nM
IC50 (KDM4C; class symbols): 1000 to 10000 nM

Cc1nn([C@H]2CNC[C@H]2C)cc1Nc1cnccc1C(=O)O (single isomer, unassigned) [Compound 110]
IC50 (KDM5A; class symbols): 1 to 100 nM
IC50 (KDM4C; class symbols): 100 to 1000 nM

O=C(O)c1ccncc1Nc1nn(C2CCNCC2)cc1-c1ccccc1 [Compound 129, 3-(4-phenyl-1-(piperidin-4-yl)-1H-pyrazol-3-ylamino) isonicotinic acid]
IC50 (KDM5A; class symbols): 1 to 100 nM
IC50 (KDM4C; class symbols): 100 to 1000 nM

Cc1c(Nc2cnccc2C(=O)O)cnn1C1CCCN(C2CCC2)CC1 (single isomer, unassigned) [Compound 119]
IC50 (KDM5A; class symbols): 1000 to 10000 nM
IC50 (KDM4C; class symbols): 100 to 1000 nM

Cc1c(Nc2cnccc2C(=O)O)cnn1C1CCCN(C2CCC2)CC1 (single isomer, unassigned) [Compound 117]
IC50 (KDM5A; class symbols): 1000 to 10000 nM
IC50 (KDM4C; class symbols): 100 to 1000 nM

Cc1cn(-c2cccc3c2CCNC3)nc1Nc1cnccc1C(=O)O [Compound 143, 3-(4-methyl-1-(1,2,3,4-tetrahydroisoquinolin-5-yl)-1H-pyrazol-3-ylamino)isonicotinic acid]
IC50 (KDM5A; class symbols): 1 to 100 nM
IC50 (KDM4C; class symbols): 100 to 1000 nM

Cc1c(Nc2cnccc2C(=O)O)cnn1C1CCCNCC1 (single isomer, unassigned) [Compound 113]
IC50 (KDM5A; class symbols): 1000 to 10000 nM
IC50 (KDM4C; class symbols): 100 to 1000 nM

CN1CCC(n2cc(Nc3cnccc3C(=O)O)c(-c3ccccc3)n2)CC1 [Compound 127, 3-(1-(1-methylpiperidin-4-yl)-3-phenyl-1H-pyrazol-4-ylamino)isonicotinic acid]
IC50 (KDM5A; class symbols): 100 to 1000 nM
IC50 (KDM4C; class symbols): 100 to 1000 nM
